From patent US20120165331A1, “Di/tri-aza-spiro-C9-C11alkanes” (priority 2010, published 2012)

Legend:
[1] = target: T1, human orexin 1 receptor (Homo sapiens, UniProt O43613); assay: Calcium accumulation in cells (FLIPR), antagonism of orexin A, human orexin 1 receptor; assay type: cell-based; conditions: for inhibition at 10 µM: measured at a concentration of 10 μM of compound, read-out: FLIPR hOx1R % inhibition; for Ki: calcium accumulation, antagonism of orexin A, Cheng-Prusoff corrected, read-out: FLIPR hOx1R Ki
T1 construct: expressed in transfected cells
T1 sequence (O43613 1-425): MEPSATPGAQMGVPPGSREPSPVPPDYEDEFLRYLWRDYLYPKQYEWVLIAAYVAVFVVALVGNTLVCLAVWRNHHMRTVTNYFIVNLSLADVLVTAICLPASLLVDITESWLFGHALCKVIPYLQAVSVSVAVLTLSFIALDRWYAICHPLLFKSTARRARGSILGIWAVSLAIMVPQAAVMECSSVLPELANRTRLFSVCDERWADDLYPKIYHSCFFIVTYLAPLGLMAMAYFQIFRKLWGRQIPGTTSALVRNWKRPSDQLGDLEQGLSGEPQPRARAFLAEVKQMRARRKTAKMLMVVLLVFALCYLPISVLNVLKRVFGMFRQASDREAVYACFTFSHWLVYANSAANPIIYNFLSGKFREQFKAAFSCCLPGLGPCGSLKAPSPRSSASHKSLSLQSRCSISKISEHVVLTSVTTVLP
Procedure: (§1) Calcium Accumulation in Cells (FLIPR):
(§2) Cells expressing human orexin 1 or human orexin 2 receptors, were seeded at 8,000 cells/well in 384 well black-walled clear bottom, poly-D-lysine coated plates. After 24 h, the medium was removed and cells were washed once with phosphate buffered saline and serum-deprived overnight in assay buffer (130 mM NaCl, 5.4 mM KCl, 1.8 mM CaCl2, 0.8 mM MgSO4, 0.9 mM NaH2PO4, 25 mM glucose, 20 mM HEPES, pH 7.4) containing bovine serum albumin (1% w/v).
(§3) On the day of the experiment, the cells seeded in black plates were treated with assay buffer containing the Ca^2+ sensitive fluorescent dye Fluo-4-AM (2 μM), and probenecid (0.1 mM). After 1 h plates were washed twice with, and resuspended in, assay buffer containing probenecid (0.1 mM) using a multi plate washer. The plates were placed into a FLIPR II (Fluorometric Imaging Plate Reader, Molecular Devices, Sunnyvale, Calif., USA) and baseline fluorescence (fluorescence light units, FLU) was measured (5 measurements, 2 S each; laser excitation 488 nm at 0.6-1 W, CCD camera exposure 0.4 s) before addition of buffer alone (basal) or containing test compounds (either compound of formula I alone, agonist alone or agonist in the presence of various concentrations of compounds of formula I). Fluorescence measurements were then continued every 1 S for 120 S followed by every 4 S for 240 S.
(§4) The measurements were typically made in two sequences:
(§5) Compounds of formula I were tested usually in a concentration range from 10^−9 M to 10^−5 M.
(§6) In the second round, performed one hour later (to allow for equilibration), Orexin A was tested either in the absence (calibration curves, Orexin A agonist controls) or in the presence of compounds of formula Ito determine antagonism.
(§7) Inhibition data is expressed in Table 1 as Kd [μM], converted by the Cheng and Prusoff correction (Kd=IC50/1+(L/EC50)), where IC50 is the 50% inhibition value determined in concentration response inhibition curves, EC50 is the half maximal activation concentration determined for orexin A in concentration response curves and L is the concentration of orexin A used in inhibition experiments performed in with a submaximal concentration of orexin A in the presence of up to 8 increasing concentrations of compound of formula I. Inhibition data is also expressed in Table 1 as % inhibition value measured at a concentration of 10 μM of selected compounds of formula I.

[2] = target: T2, human orexin 2 receptor (Homo sapiens, UniProt O43614); assay: Calcium accumulation in cells (FLIPR), antagonism of orexin A, human orexin 2 receptor; assay type: cell-based; conditions: for inhibition at 10 µM: measured at a concentration of 10 μM of compound, read-out: FLIPR hOx2R % inhibition; for Ki: calcium accumulation, antagonism of orexin A, Cheng-Prusoff corrected, read-out: FLIPR hOx2R Ki
T2 construct: expressed in transfected cells
T2 sequence (O43614 1-444): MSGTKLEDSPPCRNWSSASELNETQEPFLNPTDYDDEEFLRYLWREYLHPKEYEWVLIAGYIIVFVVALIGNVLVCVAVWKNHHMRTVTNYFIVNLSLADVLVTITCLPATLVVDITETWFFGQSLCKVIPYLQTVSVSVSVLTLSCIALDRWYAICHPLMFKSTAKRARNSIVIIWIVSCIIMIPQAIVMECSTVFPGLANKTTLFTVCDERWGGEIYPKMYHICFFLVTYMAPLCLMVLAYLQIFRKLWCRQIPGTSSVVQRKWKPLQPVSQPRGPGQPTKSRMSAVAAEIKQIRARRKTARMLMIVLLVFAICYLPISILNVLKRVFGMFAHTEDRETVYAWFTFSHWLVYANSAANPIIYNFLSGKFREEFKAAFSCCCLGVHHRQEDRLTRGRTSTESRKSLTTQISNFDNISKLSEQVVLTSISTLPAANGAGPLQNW
Procedure: as §1, §2, §3, §4, §5, §6, §7

SMILES	inhibition at 10 µM [1] [%]	inhibition at 10 µM [2] [%]	Ki [1] [nM]	Ki [2] [nM]
Cc1cc(C)nc(N2CCC3(CC2)NCCN(Cc2nn(C)cc2-c2ccc(C#N)cc2)C3=O)n1 [Example 1.45, 4-(3-((9-(4,6-Dimethylpyrimidin-2-yl)-5-oxo-1,4,9-triazaspiro[5.5]undecan-4-yl)methyl)-1-methyl-1H-pyrazol-4-yl)benzonitrile]	21	45		
CNC(=O)c1cccc(-c2cn(C)nc2CN2CCNC3(CCN(c4nc(C)cc(C)n4)CC3)C2=O)c1 [Example 1.49, 3-(3-((9-(4,6-Dimethylpyrimidin-2-yl)-5-oxo-1,4,9-triazaspiro[5.5]undecan-4-yl)methyl)-1-methyl-1H-pyrazol-4-yl)-N-methylbenzamide]	20	38		
Cc1cc(C)nc(N2CCC3(CC2)NCCN(Cc2n[nH]c4ccccc24)C3=O)n1 [Example 1.50, 4-((1H-Indazol-3-yl)methyl)-9-(4,6-dimethylpyrimidin-2-yl)-1,4,9-triazaspiro[5.5] undecan-5-one]			1180	86
COCc1ccc(-c2cn(C)nc2CN2CCNC3(CCN(c4nc(C)cc(C)n4)CC3)C2=O)cc1 [Example 1.51, 9-(4,6-Dimethyl-pyrimidin-2-yl)-4-((4-(4-(methoxymethyl)phenyl)-1-methyl-1H-pyrazol-3-yl)methyl)-1,4,9-triazaspiro[5.5] undecan-5-one]	< 10			1240
COc1cccc(-c2cn(C)nc2CN2CCNC3(CCN(c4nc(C)cc(C)n4)CC3)C2=O)n1 [Example 1.54, 9-(4,6-Dimethyl-pyrimidin-2-yl)-4-((4-(6-methoxypyridin-2-yl)-1-methyl-1H-pyrazol-3-yl)methyl)-1,4,9-triazaspiro[5.5] undecan-5-one]	15	32		
Cc1cc(C)nc(N2CCC3(CC2)NCCN(Cc2nn(C)cc2-c2cccc(-n4cccn4)c2)C3=O)n1 [Example 1.57, 4-((4-(3-(1H-Pyrazol-1-yl)phenyl)-1-methyl-1H-pyrazol-3-yl)methyl)-9-(4,6-dimethyl-pyrimidin-2-yl)-1,4,9-triazaspiro[5.5] undecan-5-one]			2670	175
Cc1cc(C)nc(N2CCC3(CC2)NCCN(Cc2nn(C)cc2-c2cccc(N(C)C)c2)C3=O)n1 [Example 1.58]	17			458
Cc1cc(C)nc(N2CCC3(CC2)NCCN(Cc2nn(C)cc2-c2cccc(-c4nnc(C)o4)c2)C3=O)n1 [Example 1.59, 9-(4,6-Dimethyl-pyrimidin-2-yl)-4-((1-methyl-4-(3-(5-methyl-1,3,4-oxadiazol-2-yl)phenyl)-1H-pyrazol-3-yl)methyl)-1,4,9-triazaspiro[5.5] undecan-5-one]	37			252
Cc1cc(C)nc(N2CCC3(CC2)NCCN(Cc2nn(C)cc2-c2cccc(-n4nc(C)cc4C)c2)C3=O)n1 [Example 1.60, 4-((4-(3-(3,5-Dimethyl-1H-pyrazol-1-yl)phenyl)-1-methyl-1H-pyrazol-3-yl)methyl)-9-(4,6-dimethylpyrimidin-2-yl)-1,4,9-triazaspiro[5.5] undecan-5-one]	13	34		
Cc1cc(C)nc(N2CCC3(CC2)NCCN(Cc2nn(C)cc2-c2ccc4c(c2)OCCO4)C3=O)n1 [Example 1.61, 4-((4-(2,3-Dihydro-benzo[b][1,4]dioxin-6-yl)-1-methyl-1H-pyrazol-3-yl)methyl)-9-(4,6-dimethylpyrimidin-2-yl)-1,4,9-triazaspiro[5.5] undecan-5-one]			836	1.8
Cc1cc(C)nc(N2CCC3(CC2)NCCN(Cc2ccccc2-c2ncc(C)o2)C3=O)n1 [Example 1.64, 9-(4,6-dimethyl-pyrimidin-2-yl)-4-(2-(5-methyloxazol-2-yl)benzyl)-1,4,9-triazaspiro[5.5] undecan-5-one]	32			423
COc1nc(C)cc(N2CCC3(CC2)NCCN(Cc2c[nH]c4ccccc24)C3=O)n1 [Example 1.66, 4-((1H-indol-3-yl)methyl)-9-(2-methoxy-6-methyl-pyrimidin-4-yl)-1,4,9-triazaspiro[5.5] undecan-5-one]			3920	632
Cc1cc(C)nc(N2CCC3(CC2)NCCN(Cc2ccccc2-c2nc(C)no2)C3=O)n1 [Example 1.69, 9-(4,6-dimethyl-pyrimidin-2-yl)-4-(2-(3-methyl-1,2,4-oxadiazol-5-yl)benzyl)-1,4,9-triazaspiro[5.5] undecan-5-one]	13			235
CCc1cc(-c2nn(C)nc2CN2CCNC3(CCN(c4nc(C)cc(C)n4)CC3)C2=O)ccn1 [Example 1.75, 9-(4,6-dimethyl-pyrimidin-2-yl)-4-((5-(2-ethyl-pyridin-4-yl)-2-methyl-2H-1,2,3-triazol-4-yl)methyl)-1,4,9-triazaspiro[5.5] undecan-5-one]	< 10	35		
Cc1cc(C)nc(N2CCC3(CC2)NCCN(Cc2nocc2-c2ccccc2)C3=O)n1 [Example 1.81, 9-(4,6-dimethyl-pyrimidin-2-yl)-4-((4-phenyl-isoxazol-3-yl)methyl)-1,4,9-triazaspiro[5.5] undecan-5-one]	33			2190
Cc1cc(C)nc(N2CCC3(CC2)NCCN(Cc2conc2-c2ccccc2)C3=O)n1 [Example 1.82, 9-(4,6-dimethyl-pyrimidin-2-yl)-4-((3-phenyl-isoxazol-4-yl)methyl)-1,4,9-triazaspiro[5.5] undecan-5-one]	57			655
Cc1cc(C)nc(N2CCC3(CC2)NCCN(Cc2nn(C)nc2-c2ccccc2)C3=O)n1 [Example 1.83, 9-(4,6-dimethyl-pyrimidin-2-yl)-4-((2-methyl-5-phenyl-2H-1,2,3-triazol-4-yl)methyl)-1,4,9-triazaspiro[5.5] undecan-5-one]			4450	240
Cc1cc(C)nc(N2CCC3(CC2)OCCN(Cc2ccccc2-c2ccco2)C3=O)n1 [Example 2.3, 9-(4,6-Dimethyl-pyrimidin-2-yl)-4-(2-furan-2-yl-benzyl)-1-oxa-4,9-diaza-spiro[5.5]undecan-5-one]			1100	142
COc1ccnc(N2CCC3(CC2)OCCN(Cc2c[nH]c4ccccc24)C3=O)n1 [Example 2.5, 4-((1H-Indol-3-yl)methyl)-9-(4-methoxypyrimidin-2-yl)-1-oxa-4,9-diazaspiro[5.5]undecan-5-one]			1550	61
Cc1cc(C)nc(N2CCC3(CC2)OCCN(Cc2ccccc2-c2ncco2)C3=O)n1 [Example 2.9, 9-(4,6-Dimethylpyrimidin-2-yl)-4-(2-(oxazol-2-yl)benzyl)-1-oxa-4,9-diazaspiro[5.5]undecan-5-one]	42			659
